PubChem BioAssay AID256 (DTP/NCI, 2004)
Values joined by “and” are separate entries in the source; they are usually repeats but may differ in a detail not shown here. Identical values can stand only once. Inconclusive results and toxic doses are left out. Rule for the calls: active = survival T/C of 150% or more; inactive = T/C below 125% in these data.

Test system: CD2F1 mice, L1210 leukemia ip, survival T/C
Assay: NCI In Vivo Anticancer Drug Screen. Data for tumor model L1210 Leukemia (intraperitoneal) in CD2F1 (CDF1) mice
Settings: higher = longer survival
How it was run: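 Mice carrying a transplanted tumor received test compound or vehicle alone. The value is the measurement in the treated group divided by that in the vehicle-treated control group.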

[1] = endpoint: mean survival time, dose: 100.0 mg/kg/injection, schedule: Q01DX009 (ip), vehicle: saline with Tween-80
[2] = endpoint: mean survival time, dose: 100.0 mg/kg/injection, schedule: Q04DX003 (ip), vehicle: saline with Tween-80
[3] = endpoint: mean survival time, dose: 200.0 mg/kg/injection, schedule: Q01DX009 (ip), vehicle: saline with Tween-80
[4] = endpoint: mean survival time, dose: 200.0 mg/kg/injection, schedule: Q04DX003 (ip), vehicle: saline with Tween-80
[5] = endpoint: mean survival time, dose: 400.0 mg/kg/injection, schedule: Q04DX003 (ip), vehicle: saline with Tween-80
[6] = endpoint: mean survival time, dose: 100.0 mg/kg/injection, schedule: Q04DX002 (ip), vehicle: saline with Tween-80
[7] = endpoint: mean survival time, dose: 200.0 mg/kg/injection, schedule: Q04DX002 (ip), vehicle: saline with Tween-80
[8] = endpoint: mean survival time, dose: 400.0 mg/kg/injection, schedule: Q04DX002 (ip), vehicle: saline with Tween-80
[9] = endpoint: mean survival time, dose: 400.0 mg/kg/injection, schedule: Q01DX009 (ip), vehicle: saline with Tween-80
[10] = endpoint: mean survival time, dose: 100.0 mg/kg/injection, schedule: Q01DX001 (ip), vehicle: saline with Tween-80
[11] = endpoint: mean survival time, dose: 200.0 mg/kg/injection, schedule: Q01DX001 (ip), vehicle: saline with Tween-80
[12] = endpoint: mean survival time, dose: 400.0 mg/kg/injection, schedule: Q01DX001 (ip), vehicle: saline with Tween-80
[13] = endpoint: mean survival time, dose: 50.0 mg/kg/injection, schedule: Q01DX009 (ip), vehicle: saline with Tween-80

Measured: T/C

COC(=O)c1ccc(N2C(=O)C=CC2=O)cc1
inactive: endpoint: mean survival time, dose: 1.5 mg/kg/injection, schedule: Q01DX009 (ip), vehicle: saline with Tween-80 108 % of control | endpoint: mean survival time, dose: 3.0 mg/kg/injection, schedule: Q01DX009 (ip), vehicle: saline with Tween-80 108 % of control

O=C(NC/C=C/Br)NC1CCCc2ccccc21 (stereo not drawn)
inactive: endpoint: mean survival time, dose: 100.0 mg/kg/injection, schedule: Q04DX003 (ip), vehicle: other 96 % of control | endpoint: mean survival time, dose: 200.0 mg/kg/injection, schedule: Q04DX003 (ip), vehicle: other 102 % of control | endpoint: mean survival time, dose: 400.0 mg/kg/injection, schedule: Q04DX003 (ip), vehicle: other 96 % of control

COc1cccc(N2CCN(CC(O)COc3ccc(N)cc3)CC2)c1 (stereo not drawn)
inactive: endpoint: mean survival time, dose: 6.25 mg/kg/injection, schedule: Q04DX002 (ip), vehicle: other 98 % of control | endpoint: mean survival time, dose: 12.5 mg/kg/injection, schedule: Q04DX002 (ip), vehicle: other 95 % of control | endpoint: mean survival time, dose: 25.0 mg/kg/injection, schedule: Q04DX002 (ip), vehicle: other 107 % of control

COc1cccc(/C=C/C(=O)O)c1OC
inactive: endpoint: mean survival time, dose: 25.0 mg/kg/injection, schedule: Q01DX009 (ip), vehicle: water 88 % of control | endpoint: mean survival time, dose: 50.0 mg/kg/injection, schedule: Q01DX009 (ip), vehicle: water 88 % of control | endpoint: mean survival time, dose: 100.0 mg/kg/injection, schedule: Q01DX009 (ip), vehicle: water 101 % of control | endpoint: mean survival time, dose: 200.0 mg/kg/injection, schedule: Q01DX009 (ip), vehicle: water 95 % of control | endpoint: mean survival time, dose: 400.0 mg/kg/injection, schedule: Q01DX009 (ip), vehicle: water 95 % of control

CCCCCNC(=O)Nc1cccc(Cl)c1C
inactive: [1] 94 % of control | [2] 88 % of control | [3] 92 % of control | [4] 92 % of control | [5] 92 % of control

O=[N+]([O-])c1ccc(OP2(Oc3ccc([N+](=O)[O-])cc3)=NP(Oc3ccc([N+](=O)[O-])cc3)(Oc3ccc([N+](=O)[O-])cc3)=NP(Oc3ccc([N+](=O)[O-])cc3)(Oc3ccc([N+](=O)[O-])cc3)=NP(Oc3ccc([N+](=O)[O-])cc3)(Oc3ccc([N+](=O)[O-])cc3)=N2)cc1
inactive: endpoint: mean survival time, dose: 25.0 mg/kg/injection, schedule: Q01DX009 (ip), vehicle: saline 100 % of control | endpoint: mean survival time, dose: 50.0 mg/kg/injection, schedule: Q01DX009 (ip), vehicle: saline 100 % of control | endpoint: mean survival time, dose: 100.0 mg/kg/injection, schedule: Q01DX009 (ip), vehicle: saline 100 % of control | endpoint: mean survival time, dose: 100.0 mg/kg/injection, schedule: Q04DX003 (ip), vehicle: saline 102 % of control | endpoint: mean survival time, dose: 200.0 mg/kg/injection, schedule: Q04DX003 (ip), vehicle: saline 100 % of control | endpoint: mean survival time, dose: 400.0 mg/kg/injection, schedule: Q04DX003 (ip), vehicle: saline 96 % of control

COC(=O)CC(N)C(=O)O (stereo not drawn)
inactive: endpoint: median survival time, dose: 6.25 mg/kg/injection, schedule: Q01DX009 (ip), vehicle: saline 100 % of control | endpoint: median survival time, dose: 12.5 mg/kg/injection, schedule: Q01DX009 (ip), vehicle: saline 97 % of control | endpoint: median survival time, dose: 25.0 mg/kg/injection, schedule: Q01DX009 (ip), vehicle: saline 98 % of control | endpoint: median survival time, dose: 50.0 mg/kg/injection, schedule: Q01DX009 (ip), vehicle: saline 94 % of control | endpoint: median survival time, dose: 100.0 mg/kg/injection, schedule: Q01DX009 (ip), vehicle: saline 98 % of control | endpoint: median survival time, dose: 200.0 mg/kg/injection, schedule: Q01DX009 (ip), vehicle: saline 97 % of control

CC1C(=O)OC2C1CCC1(C)C(O)OC(=O)C(C)C21 (stereo not drawn)
inactive: [6] 104 % of control and 96 % of control | [7] 100 % of control and 108 % of control | [8] 100 % of control and 104 % of control

CCC(C)[Se][Se]C(C)CC (stereo not drawn)
inactive: endpoint: mean survival time, dose: 25.0 mg/kg/injection, schedule: Q04DX003 (ip), vehicle: saline with Tween-80 93 % of control

CCCC1(c2ccccc2)C(=O)NCNC1=O
inactive: endpoint: median survival time, dose: 25.0 mg/kg/injection, schedule: Q01DX005 (ip), vehicle: Klucel (hydroxypropylcellulose) (HPC) 101 % of control | endpoint: median survival time, dose: 50.0 mg/kg/injection, schedule: Q01DX005 (ip), vehicle: Klucel (hydroxypropylcellulose) (HPC) 97 % of control | endpoint: median survival time, dose: 100.0 mg/kg/injection, schedule: Q01DX005 (ip), vehicle: Klucel (hydroxypropylcellulose) (HPC) 97 % of control | endpoint: median survival time, dose: 200.0 mg/kg/injection, schedule: Q01DX005 (ip), vehicle: Klucel (hydroxypropylcellulose) (HPC) 94 % of control | endpoint: median survival time, dose: 400.0 mg/kg/injection, schedule: Q01DX005 (ip), vehicle: Klucel (hydroxypropylcellulose) (HPC) 104 % of control

COC(=O)C(I)C(OC)c1ccccc1 (stereo not drawn)
inactive: [1] 107 % of control | [3] 100 % of control | [9] 97 % of control

Nc1nc(Nc2ccccc2)c2ncn(C3OC(CO)C(O)C3O)c2n1 (stereo not drawn)
inactive: endpoint: mean survival time, dose: 6.25 mg/kg/injection, schedule: Q01DX005 (ip), vehicle: distilled water + Tween-80 98 % of control | endpoint: mean survival time, dose: 12.5 mg/kg/injection, schedule: Q01DX005 (ip), vehicle: distilled water + Tween-80 98 % of control | endpoint: mean survival time, dose: 25.0 mg/kg/injection, schedule: Q01DX005 (ip), vehicle: distilled water + Tween-80 102 % of control | endpoint: mean survival time, dose: 50.0 mg/kg/injection, schedule: Q01DX005 (ip), vehicle: distilled water + Tween-80 101 % of control | endpoint: mean survival time, dose: 100.0 mg/kg/injection, schedule: Q01DX005 (ip), vehicle: distilled water + Tween-80 98 % of control

Nc1ccccc1C(=O)C/C=C/c1ccccc1
inactive: [10] 95 % of control | [11] 91 % of control | [12] 87 % of control

CCOC(=O)c1ccc(NC(=O)Nc2cccc(NC(C)=O)c2)cc1
inactive: endpoint: mean survival time, dose: 50.0 mg/kg/injection, schedule: Q01DX001 (ip), vehicle: saline with Tween-80 96 % of control | [13] 87 % of control and 91 % of control | endpoint: mean survival time, dose: 50.0 mg/kg/injection, schedule: Q04DX003 (ip), vehicle: saline with Tween-80 90 % of control | [10] 92 % of control | [1] 87 % of control and 91 % of control | [6] 87 % of control and 90 % of control | [2] 86 % of control | [11] 96 % of control | [3] 91 % of control | [7] 91 % of control | [4] 100 % of control | [12] 92 % of control

CC1(C)CC(O)C2(C)CCC3(C)C(=CCC4C5(C)CCC(O)C(C)(CO)C5CCC43C)C2C1 (stereo not drawn) (tested in a mixture with another compound)
inactive: [6] 102 % of control | [7] 98 % of control | [8] 107 % of control

CS/C(N)=N\C(=O)N(C)C
inactive: [1] 98 % of control | [3] 110 % of control | [9] 103 % of control

O=C(Nc1ccc(Nc2ccncc2)cc1)c1ccc(Nc2ccnc3ccccc23)cc1[N+](=O)[O-]
inactive: [10] 98 % of control | [11] 96 % of control | [12] 95 % of control

O=C(COc1ccccc1-c1ccccc1)Nc1ccccc1-c1ccccc1
inactive: endpoint: mean survival time, dose: 25.0 mg/kg/injection, schedule: Q04DX002 (ip), vehicle: saline with Tween-80 98 % of control | endpoint: mean survival time, dose: 50.0 mg/kg/injection, schedule: Q04DX002 (ip), vehicle: saline with Tween-80 98 % of control | [6] 94 % of control

CCCCOC(=O)/C=C(\CC(=O)OCCCC)C(=O)OCCCC
inactive: [10] 97 % of control | [11] 97 % of control | [12] 103 % of control

Oc1ccc2ccccc2c1NC(=S)Nc1ccccc1
inactive: endpoint: mean survival time, dose: 100.0 mg/kg/injection, schedule: Q04DX002 (ip), vehicle: Klucel (hydroxypropylcellulose) (HPC) 97 % of control | endpoint: mean survival time, dose: 200.0 mg/kg/injection, schedule: Q04DX002 (ip), vehicle: Klucel (hydroxypropylcellulose) (HPC) 93 % of control | endpoint: mean survival time, dose: 400.0 mg/kg/injection, schedule: Q04DX002 (ip), vehicle: Klucel (hydroxypropylcellulose) (HPC) 93 % of control

CCOC(=O)c1ccc(NC(=O)NC)cc1
inactive: [1] 93 % of control | [2] 92 % of control | [3] 93 % of control | [4] 93 % of control | [9] 93 % of control | [5] 101 % of control

Nc1nnnn1C1CCCCC1
inactive: [4] 106 % of control | [9] 92 % of control | [5] 97 % of control

Cc1cc(C)c(C)c(C(C)O)c1C (stereo not drawn)
inactive: [13] 100 % of control | [1] 100 % of control | [3] 97 % of control

CC(=O)Oc1cc(Cl)c(Cl)cc1Cl
inactive: [10] 108 % of control | [11] 97 % of control | [12] 94 % of control

COc1nc(NC2OC(CO)C(O)C(O)C2O)c(C(C)=O)c(=O)[nH]1 (stereo not drawn)
inactive: endpoint: median survival time, dose: 12.5 mg/kg/injection, schedule: Q01DX005 (ip), vehicle: saline 97 % of control | endpoint: median survival time, dose: 25.0 mg/kg/injection, schedule: Q01DX005 (ip), vehicle: saline 98 % of control | endpoint: median survival time, dose: 50.0 mg/kg/injection, schedule: Q01DX005 (ip), vehicle: saline 98 % of control | endpoint: median survival time, dose: 100.0 mg/kg/injection, schedule: Q01DX005 (ip), vehicle: saline 97 % of control | endpoint: median survival time, dose: 200.0 mg/kg/injection, schedule: Q01DX005 (ip), vehicle: saline 98 % of control

CCCCNC(=O)Nc1ccc(Cl)cc1
inactive: [10] 88 % of control | [11] 86 % of control | [12] 88 % of control
